# Data published in BindingDB's records for patent US11078201 (Nimbus Saturn, 2021).
# Target: Mitogen-activated protein kinase kinase kinase kinase 1 (Homo sapiens, UniProt Q92918)
# Experiment: Biochemical Enzyme Assay
# Method: HPK1 biochemical enzyme assay: HPK1 enzyme inhibition was measured using a microfluidic mobility shift assay. […] Test compounds were titrated in ten point curves (top final assay concentration […]), and preincubated with enzyme/substrate mix for 30 min prior to initiation of the reaction by addition of ATP (1 mM final concentration) and substrate (1 μM final concentration; Carna Biosciences) diluted in assay buffer supplemented by MgCl2 (final assay concentration of 5 mM). Following 60 min incubation at RT, the reaction was terminated by addition of 60 µl/well termination buffer (Carna Biosciences) and signal determination using a Caliper EZ Reader (Perkin Elmer, UK).
# Mitogen-activated protein kinase kinase kinase kinase 1, sequence (Q92918 whole entry): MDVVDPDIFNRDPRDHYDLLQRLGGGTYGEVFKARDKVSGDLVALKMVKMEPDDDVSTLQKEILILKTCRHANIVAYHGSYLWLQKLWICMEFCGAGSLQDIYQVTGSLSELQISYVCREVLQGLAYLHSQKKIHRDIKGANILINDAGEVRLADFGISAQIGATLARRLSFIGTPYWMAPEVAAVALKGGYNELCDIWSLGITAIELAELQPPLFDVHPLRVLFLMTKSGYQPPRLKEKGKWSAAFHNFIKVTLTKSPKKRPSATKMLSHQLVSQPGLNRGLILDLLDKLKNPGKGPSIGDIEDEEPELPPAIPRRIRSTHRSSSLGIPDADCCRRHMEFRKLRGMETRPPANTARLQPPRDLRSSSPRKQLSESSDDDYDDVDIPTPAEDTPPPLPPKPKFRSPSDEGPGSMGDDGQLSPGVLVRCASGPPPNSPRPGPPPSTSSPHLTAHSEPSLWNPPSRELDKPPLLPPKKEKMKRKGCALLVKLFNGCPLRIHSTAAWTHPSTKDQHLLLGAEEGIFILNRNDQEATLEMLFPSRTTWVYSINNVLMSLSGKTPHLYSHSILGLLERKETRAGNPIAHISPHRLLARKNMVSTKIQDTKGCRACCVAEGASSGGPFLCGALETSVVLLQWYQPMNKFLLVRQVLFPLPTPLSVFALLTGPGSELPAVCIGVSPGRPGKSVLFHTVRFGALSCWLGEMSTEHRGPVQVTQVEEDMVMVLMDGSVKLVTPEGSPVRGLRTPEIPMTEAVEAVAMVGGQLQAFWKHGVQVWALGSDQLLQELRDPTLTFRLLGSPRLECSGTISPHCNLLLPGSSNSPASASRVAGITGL
row,IC50,SMILES
1,< 100 nM,"CN1C=CC2=C(c3ncc(Nc4cccc(N5CC[C@H]6CNC[C@H]65)n4)c4c3CNC4=O)C=CNC21 (stereo partly specified) [US11078201, Compound I-440]"
2,< 100 nM,"Cn1ccc2c(-c3ncc(NC4C=CC(C5CCOC5)=C(CN5CCCC5)N4)c4c3CNC4=O)ccnc21 (stereo unspecified) [US11078201, Compound I-552]"
3,< 100 nM,"O=C1NCc2c(-c3cnn4nccnc34)ccc(Nc3ccc(N4CCC(O)CC4)cn3)c21 [US11078201, Compound I-157]"
4,< 100 nM,"CN[C@@H]1CCCN(c2ccc(Nc3ccc(-c4ccnc5c4c(C)cn5C)c4c3C(=O)NC4)nc2)C1 [US11078201, Compound I-100]"
5,< 100 nM,"Cn1cnc2c(-c3ccc(Nc4ccc(N5CCNCC5)cn4)c4c3CNC4=O)ccnc21 [US11078201, Compound I-122]"
6,< 100 nM,"CN1CCN(C2=CNC(Nc3cnc(-c4c(-c5ccccc5)[nH]c5ccccc45)c4c3C(=O)NC4)C=C2)CC1 (stereo unspecified) [US11078201, Compound I-141]"
7,< 100 nM,"O=C1NCc2c(-c3cnc4cc(F)ccn34)ccc(Nc3ccc(N4CC5CCC(C5)C4)cn3)c21 [US11078201, Compound I-405]"
8,< 100 nM,"CN(C)Cc1nc(Nc2ccc(-c3cnc4cc(F)ccn34)c3c2C(=O)NC3)ccc1C1CC[C@H](F)[C@@H](O)C1 (stereo partly specified) [US11078201, Compound I-701]"
9,< 100 nM,"CN(C)Cc1nc(Nc2ccc(-c3cnc4cc(F)ccn34)c3c2C(=O)NC3)ccc1C1CC[C@@H](F)[C@H](O)C1 (stereo partly specified) [US11078201, Compound I-700]"
10,< 100 nM,"O=C1NCc2c(-c3cnc4cc(F)ccn34)ccc(Nc3ccc(N4C[C@@H]5CC[C@@H](C5)C4)cn3)c21 [US11078201, Compound I-404]"
11,< 100 nM,"CO[C@@H]1CN(c2ccc(Nc3ccc(-c4cnn5c4CCCC5)c4c3C(=O)NC4)nc2)[C@@H](CO)CO1 [US11078201, Compound I-571]"
